# From US20250092086A1, “CELASTROL SALTS, CRYSTALLINE FORMS, AND USES THEREOF” (ERX Pharmaceuticals Inc., priority 2022, published 2025)
# Entries after “also recorded” stand apart in the source; their conditions may differ.
# What was measured:
# Assay type in all cases: physicochemical
# [1] = XRPD under temperature and relative humidity; conditions: for XRPD under temperature: impact / new crystalline phase: 25 to 100° C., RH set at 30%; for XRPD under relative humidity: impact / new crystalline phase: RH 10 to 80-90% at 40° C.
# Method: Method 1: influence of temperature at ambient RH. RH was set at 30% in order to simulate a RH near from the ambient RH, and the temperature studied were 25-[…]-100° C.
# Method 2: influence on RH at 40° C. The RH studied was at 10-30-80%.
# These experiments studied the influence of temperature at ambient RH. RH was wet at 30% in order to simulate a RH near from the ambient RH, and the temperatures studied were 25-50-100° C.
# These experiments studied the influence on RH at 40° C. The RH studied were 10-30-88%.
# Using Method 1, the influence of temperature at ambient RH was studied. RH was set at 30% in order to simulate a RH near from the ambient RH, and the temperatures studied were 25-50-100° C. FIG. 24 provides the XRPD pattern representing the influence of temperature on Compound 1 Form I.
# Using Method 2, the influence on RH at 40° C. was studied. The RH studied were 10-30-90%.
# Using Method 1, the influence of temperature at ambient RH was studied. RH was set at 30% in order to simulate a RH near from the ambient RH. Temperature studied: 25-50-100° C.
# Using Method 2, the influence on RH at 40° C. was studied at 10-30-90%.
# [2] = pH solubility profile at 37° C. of Compound 1 Form III
# Method: All the buffer solutions were prepared according to the U.S.P namely hydrochloric acid buffer for pH=2.0, acid phthalate buffer for pH=4.0, phosphate buffer for pH=6.0, alkaline borate buffer for pH=8.0, which correspond to the native pH. At the end of the solubility study, the pH of the solutions were controlled again (final pH) to determine any variation. The solubility was measured at 37° C. The maximum concentration limit was set at 100 g/L max to minimize consumption of the tested compound.
# [3] = Hygroscopicity (DVS), water sorption/desorption at 37° C.; conditions: for DVS (hygroscopicity): water sorption/desorption isotherms at 37° C., 0-95% RH
# Method: The hygroscopicity experiments were carried out with a DVS Intrinsic from S.M.S. This technique is designed to accurately measure a sample's change in mass as it sorbs precisely controlled concentrations of water vapors in an air carrier gas. The method used for DVS experiments (at 37° C.) is summarized below. • Equilibrating 10 min at 50% RH • Decreasing to 0% RH in 60 min • Equilibrating 10 min at 0% RH • Increasing to 95% RH in 280 min • Equilibrating 10 min at 95% RH • Decreasing to 50% RH in 100 min • Equilibrating 20 min at 50% RH
# (§1) The hygroscopic experiments were carried out with a DVS Intrinsic from S.M.S. This technique is designed to accurately measure a sample's change in mass as it sorbs precisely controlled concentrations of water vapors in an air carrier gas. All the methods used for DVS experiments are summarized below. It should be noticed that the temperature and relative humidity (RH) are pre-set according to the initial temperature and RH.
# • Equilibrating 120 min at 50% RH • Decreasing to 0% RH in 60 min • Equilibrating 150 min at 0% RH • Increasing to 95% RH in 200 min • Equilibrating 360 min at 95% RH • Decreasing to 50% RH in 100 min • Equilibrating 150 min at 50% RH
# as §1, with “hygroscopicity” for “hygroscopic”, “below, and it” for “below. It”
# as §1, with “hygroscopicity” for “hygroscopic”
# [4] = Solubility profile of Compound 1 Form III in water, ethanol and methanol; conditions: for solubility: thermodynamic from solid
# Method: The solubility of Compound 1 Form III was measured in the following solvents: water, ethanol and methanol. The determination of the solubility profile was performed with a Thermomixer Eppendorf driving the temperature and the mixing. The stock solutions were prepared according to the USP (United States Pharmacopeia), and then about 1 mL of these stock solutions was added to the API in tubes of 2 mL.
# [5] = Polymorph screening, cooling experiments (solubility of Form III in screening solvents); conditions: all solvents tested with the exception of dichloromethane, even at high temperature
# Method: Solutions of Compound 1 Form III were prepared at respectively 50 and 150 g/L in each solvent. Heat was applied when necessary to get a solution. Once a solution was obtained, the vials were cooled down to 10° C.
compound,measurement,setting,value
"CC1=C(O)C(=O)C=C2C1=CC=C1[C@@]2(C)CC[C@@]2(C)[C@@H]3C[C@](C)(C(=O)O)CC[C@]3(C)CC[C@]12C [Compound 1 Form III, 3-hydroxy-9β,13α-dimethyl-2-oxo-24,25,26-trinoroleana-1(10),3,5,7-tetraen-29-oic acid]",XRPD under temperature: impact / new crystalline phase,[1],stable
same,XRPD under temperature: impact / new crystalline phase,[1]; listed as FIII,=>No new crystalline
same,XRPD under relative humidity: impact / new crystalline phase,[1],stable
same,XRPD under relative humidity: impact / new crystalline phase,[1]; listed as FIII,=>No new crystalline
same,solubility,"[2]; USP buffer solutions, aqueous buffer, thermodynamic from solid, USP buffers, native pH 2.0, 4.0, 6.0 and 8.0, read-out: Solubility range",< 1 mg/mL
same,"pH solubility profile, description form",[2]; pH 2.0 to 8.0,very slight solubility; also recorded: Very slightly
same,"pH solubility profile, description form","[2]; pH 2.0 to 8.0, listed as Form III",From pH = 2 to pH = 8: very slightly soluble
same,Hysteresis observed with the final mass at 50% RH,"[3]; DVS, 37° C.",No hysteresis
same,Mass decrease as RH was lowered to 0%,"[3]; DVS, 37° C.",~0.06%
same,Mass increase as RH was increased to 95%,"[3]; DVS, 37° C.",~0.09%
same,"Water uptake, water sorption/desorption isotherms","[3]; DVS, 37° C.",< 0.2%
same,DVS (hygroscopicity),[3],non-hygroscopic
same,DVS (hygroscopicity),[3]; listed as FIII,Not hygroscopic
same,DVS (hygroscopicity),[3]; listed as Form III,nonhygroscopicity; also recorded: Non hygroscopic compound
same,solubility,"[4]; 30 °C, water, 10, 30 and 50° C.",< 1 mg/mL
same,Solubility profile: ethanol (description),[4]; ethanol,Ethanol: Soluble
same,Solubility profile: methanol (description),[4]; methanol,Methanol: Sparingly Soluble
same,solubility,"[4]; organic solvent or mixture, ethanol, 10° C.",33 to 38 mg/mL
same,solubility,"[4]; organic solvent or mixture, ethanol, 30° C.",33 to 38 mg/mL
same,solubility,"[4]; organic solvent or mixture, ethanol, 50° C.",33 to 38 mg/mL
same,solubility,"[4]; organic solvent or mixture, methanol, 10° C.",27 to 33 mg/mL
same,solubility,"[4]; organic solvent or mixture, methanol, 30° C.",27 to 33 mg/mL
same,solubility,"[4]; organic solvent or mixture, methanol, 50° C.",27 to 33 mg/mL
same,Solubility profile: water (description),[4]; water,Water: Very slightly soluble
same,Solubility in the screening solvents,[5],low solubility
